This is an account of results in US20240052079A1 (OREGON HEALTH & SCIENCE UNIVERSITY, priority 2021, published 2024).

In general, pIC50 refers to −log10 of the IC50, conventionally taken in molar units. The viability is the share of living cells, or the viability signal relative to a control. A high value points to better survival. Broadly, the half-life is how long it takes for the measured level to halve.

The subject of data set [1] is human dental pulp stem cells (hDPSC). The data set is described as follows: Cytotoxicity (MTT) assay, hDPSC. Particulars: for biocompatibility compared with methacrylates: DPSC; for pIC50: read-out: IC50 DPSC. On the procedure: (§1) For the cytotoxicity assay, two cell types were tested—odontoblast-like cell line (OD-21) and human dental pulp stem cells (hDPSC) (cat #PT5025, Lonza). […] Cells were kept in an incubator at 37° C., under humidified atmosphere with 5% CO 2 for 2-3 days until confluence was reached. Next, cells were washed with Dulbecco's phosphate buffered saline solution (PBS—Thermo Fisher Scientific) and detached from the culture flasks using 0.05% trypsin/0.02% EDTA (Sigma). Cells were counted using a hemocytometer, then 10,000 cells per well were seeded in 96-well plates for 24 hours (n=6).
(§2) From these stocks, six different concentrated solutions (0.05, 0.1, 0.5, 1, 5 and 10 mM) were prepared in cell culture medium (DMEM for OD-21 and α-MEM for DPSC) and 100 μl per well was used to incubate the cells.
(§3) Next, 200 μl of DMSO was added to each well, plates were gently agitated and the optical density was read at 570 nm and 630 nm in a spectrophotometer (Epoch Microplate Spectrophotometer, BioTek Instruments Inc, Winooski, VT, USA). OD-21 and DPSCs cultured in the medium free from the monomers were used as negative controls. Additionally, since monomer fluorescence could affect the readings, 10 mM samples of each tested monomer were incubated without cells and their absorbance measured to provide a second control (i.e. medium control). The percentage of cell viability was calculated according to the equations:
(§4) ODcells=(OD570 exper−OD630 exper)−(OD570 med contr−OD630 med contr) Equation (3)
(§5) where: ODcell is the absorbance of the remaining cells after exposure; ODexper is the absorbance of the experimental specimens at 570 nm and 630 nm; ODmed contr is the absorbance of the 10 mM solution of each monomer without cells at 570 nm and 630 nm.
(§6) where: CV (%) is percentage of cell viability in relation to the negative control (cells+medium free from the monomers); ODcells neg contr is the cells absorbance of the negative control; ODcells exper is the cells absorbance of the experimental samples.
(§7) The half maximal inhibitory concentration (IC50) of each tested monomer was determined based on the plots of cell inhibition (%) as a function of the monomers concentration (mM) using GraphPad software.

For data set [2], the system named is odontoblast-like cell line (OD-21). The data set is described as follows: Cytotoxicity (MTT) assay, OD-21 cells. The note with it: for pIC50: read-out: IC50 OD-21; for cell viability, comparison between monomers: OD-21, at 10 and 5 mM. How it is done:
as §1, §2, §3, §4, §5, §6, §7

Data set [3] can be described thus: Cytotoxicity (MTT) assay, OD-21 cells. The note with it: mouse. On the procedure: as §1, §2, §3, §4, §5, §6, §7
Data set [4] is described as follows: Hydrolytic degradation kinetics of neat monomers by 1H NMR. It counts as physicochemical. The note with it: for Percent remaining monomer: 50 mM monomer, aqueous pH=1, 37° C.; for final degradation percentage: over one month, acidic aqueous conditions (pH=1); for half-life at 50 mM: fit to exponential decay curves, pH=1, read-out: monomer half-life (converted). How it is done:
Neat monomers were subject to the hydrolytic degradation kinetics assay. An aqueous solution (pH=1) was prepared using HPLC grade water and adjusted using 1.0 M HCI. A 50 mM solution of each monomer (n=3) was prepared using 1.0 mL of the acidic aqueous solution. A capillary tube was filled with a 50 mM solution of tetramethylammonium bromide dissolved in D2O and flame sealed. The capillary tube was placed at the bottom on the NMR tube to allow the “locking on” of the instrument and to act as an internal standard. ^1H NMR spectra were obtained using a water suppression by excitation sculpting experiment. After the initial reading, the NMR tubes were flame sealed and incubated at 37° C. During the first week and after 12, 19, and 30 days, the samples were removed from incubation to obtain water suppressed ^1H NMR spectra. To determine the amount of monomer degradation, spectra were first aligned using the ITSD singlet peak and then an integration region unique to a monomer vinyl proton and an integration region unique to a degradation product (methacrylic or acrylic acid) vinyl proton were used to calculate the ratio of monomer to degradation product. […] Additional integration regions on either side of the vinyl region were used to determine the average amount of noise in each spectra. Degradation product values with a signal to noise ratio of less than 10 were considered to show no measurable amount of degradation.

Data set [5] can be described thus: Partition coefficient (logP). Type of data set: physicochemical. Particulars: values not given; source of logP not stated. The text has this: When stored dry, all materials had flexural strengths and elastic moduli that were statistically similar to the control. […] […]. The logP determines the likelihood of a compound to partition into water or octanol, with the most hydrophilic compounds presenting lower logP values. Amides are in general more hydrophilic than methacrylates because of the […] of the nitrogen atom in the amide compared to the oxygen in the methacrylate. In addition, the presence of a lone pair of electrons on the nitrogen leads to stabilization of the carbon-nitrogen bond by resonance with the carbonyl. The oxygen in the amide, in turn, assumes a partial negative charge (δ−), making it more prone to function as a hydrogen-bond acceptor. Conversely, the hydrogen of the N-H dipole is partially positively charged (δ+), which renders it a hydrogen-bond donor.

The mark [6] stands for this setting: neat monomer, 24 hours exposure, MTT.

pIC50: −log10 of the molar value. Read-outs that look alike come from different tables or passages of the source.

Consider `C=CC(=O)N(C)CCCN(C)CCCN(C)C(=O)C=C`, for which the “biocompatibility compared with methacrylates” value in data set [1] (5 mM) is listed as “less biocompatible than the tested methacrylates”. Moreover, the pIC50 in data set [1] (Homo sapiens, 24 h) is 3.27; in data set [2] (Mus musculus, 24 h) it was 2.32. In addition, in data set [2], the “cell viability, comparison between monomers” value is listed as “the lowest cell viability”. The viability at 24 h, 5 mM in data set [3] is 24%. The viability at 24 h, 10 mM in data set [3] stood at 12%. The Percent remaining monomer in data set [4] (day 0) is 100.0 ± 0.0%; in data set [4] (day 1) it was 99.8 ± 0.01%; in data set [4] (day 2), 100.0 ± 0.0%; in data set [4] (day 3) it was 100.0 ± 0.0%; in data set [4] (day 4), 100.0 ± 0.0%; in data set [4] (day 5), 99.7 ± 0.01%. Also, the Percent remaining monomer in data set [4] (day 6) came out at 100.0 ± 0.0%; in data set [4] (day 7) it was 100.0 ± 0.0%; in data set [4] (day 12) it was 100.0 ± 0.0%; in data set [4] (day 19), 99.7 ± 0.3%; in data set [4] (day 30) it was 98.7 ± 1.3%. For the same molecule, the final degradation percentage in data set [4] was 1.27%.
Take `C=CC(=O)N(C)CCN(CCN(C)C(=O)C=C)CCN(C)C(=O)C=C`: the “biocompatibility compared with methacrylates” value in data set [1] (0.5 mM) is on record as “less biocompatible than the tested methacrylates”. Moreover, the pIC50 was 2.97 in data set [1] (Homo sapiens, 24 h) and 2.10 in data set [2] (Mus musculus, 24 h). Besides, the “logP, ranking among tested monomers” value in data set [5] is “lower logP”. The Percent remaining monomer in data set [4] (day 0) worked out at 100.0 ± 0.0%; in data set [4] (day 1), 99.8 ± 0.2%; in data set [4] (day 2) it was 99.8 ± 0.2%; in data set [4] (day 3) it was 99.3 ± 0.7%; in data set [4] (day 4), 99.2 ± 0.9%; in data set [4] (day 5) it was 99.1 ± 0.7%. Also, the Percent remaining monomer in data set [4] (day 6) amounted to 99.0 ± 1.0%; in data set [4] (day 7), 98.7 ± 1.3%; in data set [4] (day 19), 96.7 ± 1.8%; in data set [4] (day 30), 93.7 ± 0.7%. Further, the half-life at 50 mM in data set [4] was 350 days. In data set [4], the final degradation percentage is 6.29%.
As to `C=CC(=O)NN1CCCN(NC(=O)C=C)CC1` [BAADA, N,N′-bis(acrylamido) 1,4-diazepane], the pIC50 in data set [1] (Homo sapiens, 24 h) was 2.44; in data set [2] (Mus musculus, 24 h), 2.00. The Percent remaining monomer came out at 100.0 ± 0.0% in data set [4] (day 0); 100.0 ± 0.0% in data set [4] (day 1); 100.0 ± 0.0% in data set [4] (day 2); 100.0 ± 0.0% in data set [4] (day 3); 99.8 ± 0.2% in data set [4] (day 4); 100.0 ± 0.0% in data set [4] (day 6). In addition, the figures for the Percent remaining monomer in data set [4] (day 12), in data set [4] (day 19) and in data set [4] (day 30) were 99.6 ± 0.4%, 92.3 ± 0.7% and 98.9 ± 1.2%, respectively. In data set [4], this molecule displayed a final degradation percentage of 1.13%.
Consider `C=C(C)C(=O)OCCO` [HEMA, 2-hydroxyethyl methacrylate, reference compound], for which the pIC50 in data set [1] (Homo sapiens, 24 h) was 2.16; in data set [2] (Mus musculus, 24 h), 1.81. Moreover, the “cell viability, comparison between monomers” value in data set [2] was “the highest”. The Percent remaining monomer was 99.2 ± 0.6% in data set [4] (day 0); 93.1 ± 0.04% in data set [4] (day 1); 87.6 ± 0.02% in data set [4] (day 2); 81.3 ± 0.02% in data set [4] (day 3); 76.5 ± 0.01% in data set [4] (day 4); 71.3 ± 0.02% in data set [4] (day 5). Moreover, the Percent remaining monomer is 66.1 ± 0.02% in data set [4] (day 6); 61.9 ± 0.01% in data set [4] (day 7); 43.1 ± 0.02% in data set [4] (day 12); 25.2 ± 0.02% in data set [4] (day 19); 10.6 ± 0.1% in data set [4] (day 30). Also, the half-life at 50 mM in data set [4] was 9.5 days. The molecule further returned a final degradation percentage in data set [4] of 89.38%.
Consider “N,N-Diethyl-1,3-bis(acrylamido)propane [DEBAAP, reference compound]”, for which the pIC50 in data set [1] (setting [6]) was 2.07; in data set [2] (setting [6]), 2.15.
Regarding “urethane dimethacrylate [UDMA, reference compound]”, the results for the pIC50 in data set [1] (setting [6]) and in data set [2] (setting [6]) were 1.99 and 2.10, respectively.
